The results in this text go back to patent US4431665A, “Acylated laidlomycin derivatives” (priority 1980, dated 1984).

Assay [1] deals with rumen contents (lactic acid accumulation). Description: Inhibition of lactic acid accumulation, second batch culture fermentation of rumen contents with glucose. The conditions noted are these: 6 h, 39° C.; for Lactic Acid Accumulation (μ mol/ml): Table 8, 0 μg/ml: 40.47; for Accumulation of Lactic Acid - % of Control: Table 4, 360 min. Type of assay: cell-based, bovine (rumen fistulated). As for the experimental part: Inhibition of lactic acid accumulation is determined using a second batch culture fermentation system. Rumen contents from a rumen fistulated bovine are mixed with an equal amount of buffer which contains a 150 mM concentration of glucose. Following 6 hours of incubation at 39° C., lactic acid produced in the fermentation is analyzed by a specific enzymatic assay. The concentration of lactic acid in the fermentation broth is quantified by the increase in absorbance of light at […] when nicotinamide adenine dinucleotide is reduced by lactic acid with the aid of lactate dehydrogenase. […]
(§1) The procedure of Example 2 was followed to compare laidlomycin (L.), sodium L. (Na L.), L.-propionate (L.C3), L. butyrate (L.C4), L. isobutyrate (L. isoC4), L. pentanoate (L.C5) and L. hexanoate (L.C6).
(§2) The procedure of Example 2 was followed to compare the activities of L. heptanoate (L. C7), L. octanoate (L. C8), L. decanoate (L. C10) and L. dodecanoate (L. C12) in increasing propionic acid production and inhibiting lactic acid production.
(§3) The procedure of Example 2 was followed to compare the activities of laidlomycin (L.) acetate (L. C2), L. pentanoate (L. C5), L. stearate (L. C18), L. cyclobutylcarboxylate, L. cyclopentylcarboxylate, L. cyclohexylcarboxylate and L. cyclopropylcarboxylate.

The test system of assay [2] is rumen microorganisms (mixed microbial population of rumen contents). Description: Enhancement of intraruminal propionic acid production, batch culture fermentation of rumen contents. The note with it: 9 h, 39° C. Type of assay: cell-based, bovine (rumen-fistulated). As for the experimental part: Enhancement of intraruminal propionic acid production is determined using a batch culture fermentation system. Rumen contents from a rumen-fistulated bovine are mixed with an equal amount of buffer which contains mineral, energy and nitrogen sources required for continued growth and metabolism of the mixed microbial population. Aliquots of this inoculum then are transferred to incubation vessels containing appropriate amounts of sodium laidlomycin (Na L.) (see Example 1A), and L. butyrate (L.C4) (prepared according to the procedure of Example 1A). After 9 hours of incubation at 39° C., concentrations of individual volatile fatty acids in each incubation vessel are determined by gas-liquid chromatography. The net production of each individual volatile fatty acid (acetic [AA], propionic [PA] and butyric [BA]) is calculated as the difference between the concentration after incubation and the concentration before incubation. The molar percentage of propionic acid produced is calculated from the following equation: [formula]
The comparative activities of sodium laidlomycin (Na L.) and the laidlomycin butyrate upon propionic acid and lactic acid production are set forth in Tables 1 and 2 where the concentration is in micrograms per ml (μg/ml).
as §1, §2, §3

The mark [3] stands for this setting: Table 7, 1.25 μg/ml, 0 μg/ml: 36.1.
Setting [4] is: Table 7, 2.5 μg/ml, 0 μg/ml: 36.1.
Setting [5] is: Table 7, 5 μg/ml, 0 μg/ml: 36.1.
Where [6] appears, read: Table 7, 10 μg/ml, 0 μg/ml: 36.1.
The mark [7] stands for this setting: Table 7, 20 μg/ml, 0 μg/ml: 36.1.
Setting [8] is: Table 7, .313 μg/ml, 0 μg/ml: 36.1.
Where [9] appears, read: Table 7, .625 μg/ml, 0 μg/ml: 36.1.
The mark [10] stands for this setting: Table 3, 1.25 μg/ml, 0 μg/ml: 28.5.
Setting [11] is: Table 3, 5 μg/ml, 0 μg/ml: 28.5.
The mark [12] stands for this setting: Table 3, 20 μg/ml, 0 μg/ml: 28.5.
Where [13] appears, read: Table 3, .31 μg/ml, 0 μg/ml: 28.5.

Like-named read-outs stand apart in the source and are kept apart here.

On to `CCCCCCCCCCCCCCCCCC(=O)OCC1(O)OC(C2CC(C)C(C3(C)CCC(C4(C)CCC5(CC(O)C(C)C(C(C)C(OC(=O)CC)C(C)C(=O)O)O5)O4)O3)O2)C(C)CC1C` (stereo not shown) [L. C18, laidlomycin stearate], for which the “Lactic Acid Accumulation (μ mol/ml)” value in assay [1] (1.25 μg/ml) is reported as 48.87 μ mol/ml; in assay [1] (2.5 μg/ml), 52.51 μ mol/ml; in assay [1] (5 μg/ml), 46.20 μ mol/ml; in assay [1] (10 μg/ml), 37.83 μ mol/ml; in assay [1] (20 μg/ml) it was 29.93 μ mol/ml; in assay [1] (.313 μg/ml), 50.29 μ mol/ml. In addition, in assay [1] (.625 μg/ml), the “Lactic Acid Accumulation (μ mol/ml)” value came out at 52.57 μ mol/ml. Further, the “% Propionic Acid” value amounted to 40.0% in assay [2] (setting [3]); 41.6% in assay [2] (setting [4]); 44.6% in assay [2] (setting [5]); 45.5% in assay [2] (setting [6]); 45.8% in assay [2] (setting [7]); 37.1% in assay [2] (setting [8]). Also, the “% Propionic Acid” value in assay [2] (setting [9]) is listed as 37.6%.
For the molecule `CCC(=O)OC(C(C)C(=O)O)C(C)C1OC2(CCC(C)(C3CCC(C)(C4OC(C5OC(O)(COC(=O)C6CCC6)C(C)CC5C)CC4C)O3)O2)CC(O)C1C` (stereo not shown) [Cyclobutylcarboxylate, laidlomycin cyclobutylcarboxylate], the “Lactic Acid Accumulation (μ mol/ml)” value in assay [1] (1.25 μg/ml) is on record as 3.82 μ mol/ml; in assay [1] (2.5 μg/ml) it was 4.01 μ mol/ml; in assay [1] (5 μg/ml), 4.32 μ mol/ml; in assay [1] (10 μg/ml) it was 4.73 μ mol/ml; in assay [1] (20 μg/ml) it was 4.75 μ mol/ml; in assay [1] (.313 μg/ml), 23.25 μ mol/ml. For the same molecule, in assay [1] (.625 μg/ml), the “Lactic Acid Accumulation (μ mol/ml)” value came to 8.05 μ mol/ml. Also, the “% Propionic Acid” value in assay [2] (setting [3]) came out at 50.0%; in assay [2] (setting [4]), 52.5%; in assay [2] (setting [5]), 51.7%; in assay [2] (setting [6]), 51.8%; in assay [2] (setting [7]), 51.2%; in assay [2] (setting [8]), 47.5%. Besides, the “% Propionic Acid” value in assay [2] (setting [9]) was 47.1%.
Regarding `CCC(=O)OC(C(C)C(=O)O)C(C)C1OC2(CCC(C)(C3CCC(C)(C4OC(C5OC(O)(COC(=O)C6CCCCC6)C(C)CC5C)CC4C)O3)O2)CC(O)C1C` (stereo not shown) [Cyclohexylcarboxylate, laidlomycin cyclohexylcarboxylate], the “Lactic Acid Accumulation (μ mol/ml)” value was 3.74 μ mol/ml in assay [1] (1.25 μg/ml); 4.40 μ mol/ml in assay [1] (2.5 μg/ml); 4.83 μ mol/ml in assay [1] (5 μg/ml); 4.97 μ mol/ml in assay [1] (10 μg/ml); 5.72 μ mol/ml in assay [1] (20 μg/ml); 35.55 μ mol/ml in assay [1] (.313 μg/ml). For the same molecule, the “Lactic Acid Accumulation (μ mol/ml)” value in assay [1] (.625 μg/ml) amounted to 12.78 μ mol/ml. The “% Propionic Acid” value amounted to 50.1% in assay [2] (setting [3]); 50.8% in assay [2] (setting [4]); 51.6% in assay [2] (setting [5]); 51.8% in assay [2] (setting [6]); 53.3% in assay [2] (setting [7]); 47.2% in assay [2] (setting [8]). The “% Propionic Acid” value in assay [2] (setting [9]) was found to be 49.0%.
Turning to `CCCCCC(=O)OCC1(O)OC(C2CC(C)C(C3(C)CCC(C4(C)CCC5(CC(O)C(C)C(C(C)C(OC(=O)CC)C(C)C(=O)O)O5)O4)O3)O2)C(C)CC1C` (stereo not shown) [L. C6, laidlomycin hexanoate], the activity at 1.25 µg/mL in assay [1] (Bos taurus, read-out: Accumulation of Lactic Acid - % of Control, Table 4, 1.25 μg/ml) amounted to 18%. Besides, the activity at 5 µg/mL in assay [1] (Bos taurus, read-out: Accumulation of Lactic Acid - % of Control, Table 4, 5 μg/ml) stood at 11%. Also, the activity at 20 µg/mL in assay [1] (Bos taurus, read-out: Accumulation of Lactic Acid - % of Control, Table 4, 20 μg/ml) turned out to be 14%. Besides, in assay [1] (Bos taurus, read-out: Accumulation of Lactic Acid - % of Control, Table 4, .31 μg/ml), the activity at 0.31 µg/mL turned out to be 60%. Also, the “% Propionic Acid” value in assay [2] (setting [10]) was determined as 37.1%; in assay [2] (setting [11]), 40.1%; in assay [2] (setting [12]) it was 41.7%; in assay [2] (setting [13]), 33.0%.
For `CCC(=O)OC(C(C)C(=O)O)C(C)C1OC2(CCC(C)(C3CCC(C)(C4OC(C5OC(O)(CO)C(C)CC5C)CC4C)O3)O2)CC(O)C1C` (stereo not shown) [Na L., sodium laidlomycin, reference compound], the activity at 1.25 µg/mL in assay [1] (Bos taurus, read-out: Lactic Acid Accumulation (% of Control), Table 2, 1.25 μg/ml) came to 125%. For the same molecule, in assay [1] (Bos taurus, read-out: Lactic Acid Accumulation (% of Control), Table 2, 2.5 μg/ml), the activity at 2.5 µg/mL is 112%. The activity at 5 µg/mL in assay [1] (Bos taurus, read-out: Lactic Acid Accumulation (% of Control), Table 2, 5 μg/ml) was 93%. Also, the activity at 10 µg/mL in assay [1] (Bos taurus, read-out: Lactic Acid Accumulation (% of Control), Table 2, 10 μg/ml) turned out to be 67%. The activity at 0.31 µg/mL in assay [1] (Bos taurus, read-out: Lactic Acid Accumulation (% of Control), Table 2, .31 μg/ml) came to 135%. Also, the activity at 0.62 µg/mL in assay [1] (Bos taurus, read-out: Lactic Acid Accumulation (% of Control), Table 2, .62 μg/ml) turned out to be 132%. For the same molecule, the “Accumulation of Lactic Acid - % of Control” value in assay [1] (1.25 μg/ml) is 94 % of Control; in assay [1] (5 μg/ml), 57 % of Control; in assay [1] (20 μg/ml) it was 40 % of Control; in assay [1] (.31 μg/ml) it was 114 % of Control. Moreover, the “% Propionic Acid” value in assay [2] (Table 1, 1.25 μg/ml, 0 μg/ml: 35.4) was 41.3%; in assay [2] (Table 1, 2.5 μg/ml, 0 μg/ml: 35.4) it was 43.2%; in assay [2] (Table 1, 5 μg/ml, 0 μg/ml: 35.4), 44.4%; in assay [2] (Table 1, 10 μg/ml, 0 μg/ml: 35.4) it was 45.4%; in assay [2] (Table 1, .31 μg/ml, 0 μg/ml: 35.4), 40.2%; in assay [2] (Table 1, .62 μg/ml, 0 μg/ml: 35.4) it was 40.8%. Moreover, the “% Propionic Acid” value is reported as 34.1% in assay [2] (setting [10]), 34.6% in assay [2] (setting [11]), 36.8% in assay [2] (setting [12]) and 32.0% in assay [2] (setting [13]).
